Measurements taken from ChEMBL document CHEMBL5346912, “Discovery of 3,5-diaryl-1H-pyrazol-based ureas as potent RET inhibitors” (Eur J Med Chem, 2023).

Assays:
[1] = test system: BaF3; assay: cells; details: Mus musculus, BaF3, 72 h
Description: Antiproliferative activity against mouse BaF3 cells incubated for 72 hrs by CCK8 assay

[2] = test system: BaF3; assay: Antiproliferative activity against mouse BaF3 cells expressing CCDC6-RET-V804M incubated for 72 hrs by CCK8 assay; assay type: functional, cell-based; details: BaF3, 72 h
[3] = test system: BaF3; assay: Antiproliferative activity against mouse BaF3 cells expressing CCDC6-RET-G810C incubated for 72 hrs by CCK8 assay; assay type: functional, cell-based; details: BaF3, 72 h
[4] = molecular target: Proto-oncogene tyrosine-protein kinase receptor Ret (Homo sapiens, UniProt P07949); assay: Binding affinity to RET (unknown origin) assessed as dissociation constant in presence of ATP by FRET based Z'-Lyte assay
Sequence of Proto-oncogene tyrosine-protein kinase receptor Ret (P07949 whole entry): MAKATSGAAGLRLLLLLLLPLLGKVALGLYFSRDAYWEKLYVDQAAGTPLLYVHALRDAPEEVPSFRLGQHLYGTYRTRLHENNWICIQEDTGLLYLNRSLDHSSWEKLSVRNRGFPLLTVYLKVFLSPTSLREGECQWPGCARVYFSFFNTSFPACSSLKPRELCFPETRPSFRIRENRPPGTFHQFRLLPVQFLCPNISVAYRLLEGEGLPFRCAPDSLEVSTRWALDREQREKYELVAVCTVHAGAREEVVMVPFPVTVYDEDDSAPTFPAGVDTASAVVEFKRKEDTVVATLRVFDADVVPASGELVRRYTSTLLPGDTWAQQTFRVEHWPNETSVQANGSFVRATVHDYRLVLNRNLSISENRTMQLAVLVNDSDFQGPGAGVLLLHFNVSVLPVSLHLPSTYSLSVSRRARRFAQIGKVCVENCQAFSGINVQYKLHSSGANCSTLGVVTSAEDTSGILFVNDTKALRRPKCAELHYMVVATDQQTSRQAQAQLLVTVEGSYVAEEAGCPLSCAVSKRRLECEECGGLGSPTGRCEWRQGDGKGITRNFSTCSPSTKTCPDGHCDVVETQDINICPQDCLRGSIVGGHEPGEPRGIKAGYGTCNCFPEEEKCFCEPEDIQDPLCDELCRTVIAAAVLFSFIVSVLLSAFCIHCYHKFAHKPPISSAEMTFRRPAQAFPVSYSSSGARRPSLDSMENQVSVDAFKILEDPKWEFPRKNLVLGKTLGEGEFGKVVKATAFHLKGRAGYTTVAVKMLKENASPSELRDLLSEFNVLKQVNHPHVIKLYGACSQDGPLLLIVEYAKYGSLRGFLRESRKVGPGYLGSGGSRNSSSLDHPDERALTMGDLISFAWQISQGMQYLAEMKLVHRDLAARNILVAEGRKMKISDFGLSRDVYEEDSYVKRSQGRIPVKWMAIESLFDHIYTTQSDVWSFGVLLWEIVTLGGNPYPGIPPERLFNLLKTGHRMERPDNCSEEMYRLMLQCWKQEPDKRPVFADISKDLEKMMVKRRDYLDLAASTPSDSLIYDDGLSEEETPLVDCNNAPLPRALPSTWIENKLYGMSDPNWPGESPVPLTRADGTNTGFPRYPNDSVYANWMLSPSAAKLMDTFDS

[5] = test system: BaF3; assay: Antiproliferative activity against mouse BaF3 cells expressing CCDC6-RET incubated for 72 hrs by CCK8 assay; assay type: functional, cell-based; details: BaF3, 72 h
[6] = test system: BaF3; assay: Antiproliferative activity against mouse BaF3 cells expressing CCDC6-RET-G810R incubated for 72 hrs by CCK8 assay; assay type: functional, cell-based; details: BaF3, 72 h

| Compound | IC50 [1] [nM] | IC50 [2] [nM] | IC50 [3] [nM] | Kd [4] [nM] | IC50 [5] [nM] | IC50 [6] [nM] |
| --- | --- | --- | --- | --- | --- | --- |
| COc1cc(-c2cc(-c3ccc(NC(=O)Nc4cc(C(C)(C)C(F)(F)F)on4)c(F)c3)n[nH]2)ccc1OCCN1CCOCC1 | 373 | 3.9 | 118 | 9 | 3 | 319 |
| COc1cc(-c2cc(-c3ccc(NC(=O)Nc4cc(C(C)(C)C(F)(F)F)on4)cc3)n[nH]2)ccc1OCCN1CCOCC1 | 184 | 5.2 | 139 | 5.6 | 7.1 | 230 |
| CN(C)CCCOc1ccc(-c2cc(-c3ccc(NC(=O)Nc4cc(C(C)(C)C)on4)cc3)n[nH]2)cc1 | 1180 | 10.5 | 131 | 2 | 9.3 | 532 |
| COc1cc(-c2cc(-c3ccc(NC(=O)Nc4cc(C(C)(C)C)on4)c(F)c3)n[nH]2)ccc1OCCN1CCOCC1 | > 10000 | 7.4 | 122 | 10.2 | 6.7 | 313 |
| COc1ccc(CN2[C@@H]3C[C@H]2CN(c2ccc(-c4cc(OCC(C)(C)O)cn5ncc(C#N)c45)cn2)C3)cn1 | > 3000 | 26 | 1310 |  | 11.5 | 883 |
| CC(C)(C)c1cc(NC(=O)Nc2ccc(-c3cc(-c4ccc(OCCCN5CCOCC5)cc4)[nH]n3)cc2)no1 | 1080 | 12.4 | 166 | 4.1 | 9.6 | 570 |
| Cc1cc(NC(=O)Nc2cc(C(C)(C)C)on2)ccc1-c1cc(-c2ccc(OCCN3CCOCC3)cc2)[nH]n1 | > 10000 | 33.9 | 196 | 18 | 35.6 | 2020 |
| CC(C)(C)c1cc(NC(=O)Nc2ccc(-c3cc(-c4ccc(OCCN5CCOCC5)cc4Br)[nH]n3)cc2)no1 | 1210 | 62 | 606 | 15.5 | 67 | 1280 |
| CC(C)(C)c1cc(NC(=O)Nc2ccc(-c3cc(-c4ccc(OCCN5CCOCC5)cc4)[nH]n3)c(Cl)c2)no1 | 1050 | 209 | 410 | 16 | 165 | 1010 |
| Cc1cc(OCCN2CCOCC2)ccc1-c1cc(-c2ccc(NC(=O)Nc3cc(C(C)(C)C)on3)cc2)n[nH]1 | > 3000 | 173 | 2040 | 12.5 | 120 | 1960 |
| CC(C)(C)c1cc(NC(=O)Nc2ccc(-c3cc(-c4ccc(OCCN5CCOCC5)cc4)[nH]n3)cc2F)no1 | > 3000 | 6.6 | 99.9 | 8.1 | 7.1 | 1320 |
| CC(C)(C)c1cc(NC(=O)Nc2ccc(-c3cc(-c4cccc(OCCN5CCOCC5)c4)[nH]n3)cc2)no1 | 1560 | 188 | 587 | 6 | 226 | 1020 |

More lines, now with the values ahead:

| IC50 [1] [nM] | IC50 [2] [nM] | IC50 [3] [nM] | Kd [4] [nM] | IC50 [5] [nM] | IC50 [6] [nM] | Compound |
| --- | --- | --- | --- | --- | --- | --- |
| 1950 | 8.5 | 103 | 3.2 | 7.9 | 842 | CN(C)CCOc1ccc(-c2cc(-c3ccc(NC(=O)Nc4cc(C(C)(C)C)on4)cc3)n[nH]2)cc1 |
| 1040 | 4.1 | 114 |  | 5 | 358 | CO[C@]1(C(=O)N[C@@H](C)c2ccc(-n3cc(F)cn3)nc2)CC[C@@H](c2nc(C)cc(Nc3cc(C)[nH]n3)n2)CC1 |
| 1090 | 1180 | 1830 | 26.5 | 585 | 1070 | CC(C)(C)c1cc(NC(=O)Nc2ccc(-c3cn(-c4ccc(OCCN5CCOCC5)cc4Cl)nn3)cc2)no1 |
| > 10000 | 36 | 335 | 21 | 29 | 746 | CC(C)(C)c1cc(NC(=O)Nc2ccc(-c3cc(-c4ccc(OCCN5CCOCC5)cc4)[nH]n3)cc2Cl)no1 |
| > 10000 | 27.9 | 159 | 9.4 | 20.4 | > 10000 | CC(C)(C)c1cc(NC(=O)Nc2ccc(-c3cc(-c4ccc(OCCN5CCOCC5)c(Cl)c4)[nH]n3)cc2)no1 |
| 442 | 10.4 | 131 | 6.1 | 12.1 | 417 | COc1cc(-c2cc(-c3ccc(NC(=O)Nc4cc(C(C)(C)C)on4)cc3)n[nH]2)ccc1OCCN1CCOCC1 |
| > 10000 | 18.1 | 412 | 8.3 | 17.9 | > 10000 | CC(C)(C)c1cc(NC(=O)Nc2ccc(-c3cc(-c4ccc(OCCN5CCOCC5)cc4F)[nH]n3)cc2)no1 |
| 424 | 339 | 682 | 10.2 | 328 | 869 | CC(C)(C)c1cc(NC(=O)Nc2ccc(-c3n[nH]c(-c4ccc(OCCN5CCOCC5)cc4Cl)n3)cc2)no1 |
| 772 | 491 | 802 | 31.5 | 404 | 716 | CC(C)(C)c1cc(NC(=O)Nc2ccc(-c3c[nH]c(-c4ccc(OCCN5CCOCC5)cc4Cl)n3)cc2)no1 |
| > 10000 | 14 | 126 | 9.7 | 10.6 | 2250 | CC(C)(C)c1cc(NC(=O)Nc2ccc(-c3cc(-c4ccc(OCCN5CCOCC5)c(F)c4)[nH]n3)cc2)no1 |
| 625 | 437 | 1130 | 32 | 387 | 984 | COc1cc(NC(=O)Nc2cc(C(C)(C)C)on2)ccc1-c1cc(-c2ccc(OCCN3CCOCC3)cc2)[nH]n1 |
| > 10000 | 35.5 | 533 | 11 | 36.2 | 626 | CC(C)(C)c1cc(NC(=O)Nc2ccc(-c3cc(-c4ccc(OCCN5CCOCC5)cc4Cl)[nH]n3)cc2)no1 |
